Measurements as given in US9670170B2, “Resorufin derivatives for treatment of oxidative stress disorders” (BioElectron Technology Corporation, priority 2013, dated 2017).
Where two headings read alike, the source gives them in different places.

System: FRDA fibroblasts
Assay: Rescue of BSO-stressed human dermal fibroblasts from Friedreich's Ataxia patients (Calcein AM viability)
Assay type: cell-based
Protocol: An initial screen was performed to identify compounds effective for the amelioration of redox disorders. Test samples, 4 reference compounds (idebenone, decylubiquinone, Trolox and alpha-tocopherol), and solvent controls were tested for their ability to rescue FRDA fibroblasts stressed by addition of L-buthionine-(S,R)-sulfoximine (BSO), as described in Jauslin et al., Hum. Mol. Genet. 11(24):3055 (2002), Jauslin et al., FASEB J. 17:1972-4 (2003), and International Patent Application WO 2004/003565. […] This specific BSO-mediated cell death can be prevented by administration of antioxidants or molecules involved in the antioxidant pathway, such as alpha-tocopherol, selenium, or small molecule glutathione peroxidase mimetics. However, antioxidants differ in their potency, i.e. the concentration at which they are able to rescue BSO-stressed FRDA fibroblasts.
MEM (a medium enriched in amino acids and vitamins, catalog no. 1-31F24-I) and Medium 199 (M199, catalog no. 1-21F22-I) with Earle's Balanced Salts, without phenol red, were purchased from Bioconcept. Fetal Calf Serum was obtained from PAA Laboratories. Basic fibroblast growth factor and epidermal growth factor were purchased from PeproTech. Penicillin-streptomycin-glutamine mix, L-buthionine (S,R)-sulfoximine, (+)-alpha-tocopherol, decylubiquinone, and insulin from bovine pancreas were purchased from Sigma. Trolox (6-Hydroxy-2,5,7,8-tetramethylchromane-2-carboxylic acid) was obtained from Fluka. Idebenone was obtained from Chemo Iberica. Calcein AM was purchased from Anaspec. Cell culture medium was made by combining 125 ml M199 EBS, 50 ml Fetal Calf Serum, 100 U/ml penicillin, 100 microgram/ml streptomycin, 2 mM glutamine, 10 microgram/ml insulin, 10 ng/ml EGF, and 10 ng/ml bFGF; MEM EBS was added to make the volume up to 500 ml. A 10 mM BSO solution was prepared by dissolving 444 mg BSO in 200 ml of medium (Invitrogen, Carlsbad, Ca.) with subsequent filter-sterilization. During the course of the experiments, this solution was stored at +4° C. The cells were obtained from the Coriell Cell Repositories (Camden, N.J.; repository number GM04078) and grown in 10 cm tissue culture plates. Every third day, they were split at a 1:3 ratio.
The test samples were supplied in 1.5 ml glass vials. The compounds were diluted with DMSO, ethanol or PBS to result in a 5 mM stock solution. Once dissolved, they were stored at −20° C. Reference antioxidants (idebenone, decylubiquinone, alpha-tocopherol and Trolox) were dissolved in DMSO.
Test samples were screened according to the following protocol:
A culture with FRDA fibroblasts was started from a 1 ml vial with approximately 500,000 cells stored in liquid nitrogen. Cells were propagated in 10 cm cell culture dishes by splitting every third day in a ratio of 1:3 until nine plates were available. Once confluent, fibroblasts were harvested. For 54 micro titer plates (96 well-MTP) a total of 14.3 million cells (passage eight) were re-suspended in 480 ml medium, corresponding to 100 microliters medium with 3,000 cells/well. The remaining cells were distributed in 10 cm cell culture plates (500,000 cells/plate) for propagation. The plates were incubated overnight at 37° C. in a atmosphere with 95% humidity and 5% CO2 to allow attachment of the cells to the culture plate.
10% DMSO (242.5 microliters) was added to a well of the microtiter plate. The test compounds were unfrozen, and 7.5 microliters of a 5 mM stock solution was dissolved in the well containing 242.5 microliters of 10% DMSO, resulting in a 150 micromolar master solution. Serial dilutions from the master solution were made. The period between the single dilution steps was kept as short as possible (generally less than 30 seconds). At least 4 hours after attachment into MTP, cells were then treated with the various compound dilutions.
Plates were kept overnight in the cell culture incubator. […]

[1] = Homo sapiens, compounds of the invention, FRDA fibroblasts (GM04078), 1 mM BSO, 48 h, tested three times, read-out: Ec50 Average
[2] = Homo sapiens, GM04078, 48 h, read-out: Ec50 Average

Compound	EC50 [1]	further results
Cc1c2nc3ccc(C(=O)NCCCO)cc3oc-2c(C)c(=O)c1C [Compound 10]	5 nM	
COc1ccc2nc3ccc(=O)cc-3oc2c1 [Compound 3]		EC50 [2]: 1 nM
Cc1cc2oc3c(C)c(=O)c(C)c(C)c-3nc2cc1S(C)(=O)=O [Compound 23]	234 nM	
O=c1ccc2nc3ccc(O)cc3oc-2c1 [Compound 4]		EC50 [2]: 84 nM
Cc1c2nc3ccc(C(=O)NCCc4ccccc4)cc3oc-2c(C)c(=O)c1C [Compound 19]	25 nM	
COCCN(C)C(=O)c1ccc2nc3c(C)c(C)c(=O)c(C)c-3oc2c1 [Compound 7]	2 nM	
Cc1ccc2nc3c(C)c(C)c(=O)c(C)c-3oc2c1 [Compound 11]	5 nM	
COc1c2nc3ccc(C)cc3oc-2c(C)c(=O)c1OC [Compound 6]	2 nM	
COc1ccc2nc3c(OC)c(OC)c(=O)c(C)c-3oc2c1 [Compound 13]	12 nM	
Cc1c(C)c2c(c(C)c1O)CC[C@@](C)(CCC[C@H](C)CCC[C@H](C)CCCC(C)C)O2 [alpha-tocopherol, reference compound]		EC50 (control compounds, FRDA fibroblasts (GM04078), 1 mM BSO, 48 h, average of three values, read-out: EC50 Average): 300 nM; EC50 (control compounds, FRDA fibroblasts (GM04078), 1 mM BSO, 48 h, first of three experiments, read-out: EC50 Value 1): 400 nM; EC50 (control compounds, FRDA fibroblasts (GM04078), 1 mM BSO, 48 h, second of three experiments, read-out: EC50 Value 2): 150 nM; EC50 (control compounds, FRDA fibroblasts (GM04078), 1 mM BSO, 48 h, third of three experiments, read-out: EC50 Value 3): 350 nM
CCOc1ccc2nc3ccc(=O)cc-3oc2c1 [Compound 5]		EC50 [2]: 0.8 nM
Cc1cc(C)c2nc3c(C)c(C)c(=O)c(C)c-3oc2c1 [Compound 20]	26 nM	
Cc1c2nc3ccc(C(=O)NCCN4CCOCC4)cc3oc-2c(C)c(=O)c1C [Compound 8]	3 nM	
COCCNC(=O)c1ccc2nc3c(C)c(C)c(=O)c(C)c-3oc2c1 [Compound 12]	6 nM	
Cc1c2nc3cc(C(F)(F)F)ccc3oc-2c(C)c(=O)c1C [Compound 22]	54 nM	
Cc1c2nc3ccc(C(F)(F)F)cc3oc-2c(C)c(=O)c1C [Compound 17]	23 nM	
O=c1ccc2nc3ccc(OCc4ccccc4)cc3oc-2c1 [Compound 1]		EC50 [2]: 1 nM
Cc1ccc2nc3c(C)c(C)c(=O)c(C)c-3oc2c1C [Compound 9]	4 nM	
COCCOCCOCCOCCNC(=O)c1ccc2nc3c(C)c(C)c(=O)c(C)c-3oc2c1 [Compound 15]	17 nM	
O=c1ccc2nc3ccc(O[C@@H]4O[C@H](CO)[C@H](O)[C@H](O)[C@H]4O)cc3oc-2c1 [Compound 14]	16 nM	
COC(=O)c1ccc2nc3c(C)c(C)c(=O)c(C)c-3oc2c1 [Compound 21]	50 nM	
